Tests used:
Format in all cases: cell-based
SMARCA2 [1] = target: T1, SMARCA2 (Homo sapiens, UniProt P51531); experiment: SMARCA2 degradation in SW1573 cells (Western blot); set-up: endogenous in cells; host or cells: SW1573; settings: 24 hours
Experimental: (§1) Test Example 10 Degradation rate (%) of SMARCA2/4 by the PROTAC compounds of the present invention in HeLa cells and SW1573 cells
SW1573 cells were seeded at 2x10^5Cells/well in a 6-well plate. 2 mL of EMEM medium supplemented with 10% FBS was added to each well and was incubated overnight to allow cell attachment. The next day, 1 µL of 160 µM and 1 µL of 2 µM compound were added to the corresponding wells for treatment, resulting in final compound concentrations of 80 nM and 1 nM, respectively, and a final DMSO concentration of 0.05%. The cells were returned to the incubator and incubated for another 24 hours.
(§2) After 24 hours, cells were harvested, the medium was aspirated, and the cells were rinsed once with 1 mL/well PBS. The PBS was aspirated, and 40 µL/well of RIPA lysis buffer containing protease inhibitors was added. After lysis and centrifugation, total protein extracts were obtained, and protein concentration in the extracts was determined by BCA assay. Protein electrophoresis was performed by SDS-PAGE, followed by constant voltage electrophoresis at 100 V for 60 minutes and the protein was then transferred to a PVDF membrane. The PVDF membrane was blocked in 5% skim milk powder for 1 hour at room temperature. Primary antibodies (SMARCA2: CST#11966S, SMARCA4: CST#49360S, GAPDH: CST#5174S) were added and incubated overnight at 4°C. After washing the membrane, secondary antibodies were added and incubated at room temperature for 1 hour (protected from the light). After washing, the membrane was exposed using an Odyssey luminometer. Grayscale analysis of bands was performed using Image Studio software.
(§3) The degradation rate (%) of SMARCA2/4 by the PROTAC compounds of the present invention in HeLa cells and SW1573 cells is shown in Table 10. Table 10 Degradation rate of SMARCA2/4 by PROTAC compounds of the present invention in HeLa cells and SW1573 cells (%)

SMARCA4 = SMARCA4 (Homo sapiens, UniProt P51532); experiment: SMARCA4 degradation in SW1573 cells (Western blot); set-up: endogenous in cells; host or cells: SW1573; settings: 24 hours; for Dmax at 0.001 µM / Dmax at 0.08 µM: read-out: Degradation rate of SMARCA4 in SW1573 cells (%)
Sequence of SMARCA4 (P51532 whole entry): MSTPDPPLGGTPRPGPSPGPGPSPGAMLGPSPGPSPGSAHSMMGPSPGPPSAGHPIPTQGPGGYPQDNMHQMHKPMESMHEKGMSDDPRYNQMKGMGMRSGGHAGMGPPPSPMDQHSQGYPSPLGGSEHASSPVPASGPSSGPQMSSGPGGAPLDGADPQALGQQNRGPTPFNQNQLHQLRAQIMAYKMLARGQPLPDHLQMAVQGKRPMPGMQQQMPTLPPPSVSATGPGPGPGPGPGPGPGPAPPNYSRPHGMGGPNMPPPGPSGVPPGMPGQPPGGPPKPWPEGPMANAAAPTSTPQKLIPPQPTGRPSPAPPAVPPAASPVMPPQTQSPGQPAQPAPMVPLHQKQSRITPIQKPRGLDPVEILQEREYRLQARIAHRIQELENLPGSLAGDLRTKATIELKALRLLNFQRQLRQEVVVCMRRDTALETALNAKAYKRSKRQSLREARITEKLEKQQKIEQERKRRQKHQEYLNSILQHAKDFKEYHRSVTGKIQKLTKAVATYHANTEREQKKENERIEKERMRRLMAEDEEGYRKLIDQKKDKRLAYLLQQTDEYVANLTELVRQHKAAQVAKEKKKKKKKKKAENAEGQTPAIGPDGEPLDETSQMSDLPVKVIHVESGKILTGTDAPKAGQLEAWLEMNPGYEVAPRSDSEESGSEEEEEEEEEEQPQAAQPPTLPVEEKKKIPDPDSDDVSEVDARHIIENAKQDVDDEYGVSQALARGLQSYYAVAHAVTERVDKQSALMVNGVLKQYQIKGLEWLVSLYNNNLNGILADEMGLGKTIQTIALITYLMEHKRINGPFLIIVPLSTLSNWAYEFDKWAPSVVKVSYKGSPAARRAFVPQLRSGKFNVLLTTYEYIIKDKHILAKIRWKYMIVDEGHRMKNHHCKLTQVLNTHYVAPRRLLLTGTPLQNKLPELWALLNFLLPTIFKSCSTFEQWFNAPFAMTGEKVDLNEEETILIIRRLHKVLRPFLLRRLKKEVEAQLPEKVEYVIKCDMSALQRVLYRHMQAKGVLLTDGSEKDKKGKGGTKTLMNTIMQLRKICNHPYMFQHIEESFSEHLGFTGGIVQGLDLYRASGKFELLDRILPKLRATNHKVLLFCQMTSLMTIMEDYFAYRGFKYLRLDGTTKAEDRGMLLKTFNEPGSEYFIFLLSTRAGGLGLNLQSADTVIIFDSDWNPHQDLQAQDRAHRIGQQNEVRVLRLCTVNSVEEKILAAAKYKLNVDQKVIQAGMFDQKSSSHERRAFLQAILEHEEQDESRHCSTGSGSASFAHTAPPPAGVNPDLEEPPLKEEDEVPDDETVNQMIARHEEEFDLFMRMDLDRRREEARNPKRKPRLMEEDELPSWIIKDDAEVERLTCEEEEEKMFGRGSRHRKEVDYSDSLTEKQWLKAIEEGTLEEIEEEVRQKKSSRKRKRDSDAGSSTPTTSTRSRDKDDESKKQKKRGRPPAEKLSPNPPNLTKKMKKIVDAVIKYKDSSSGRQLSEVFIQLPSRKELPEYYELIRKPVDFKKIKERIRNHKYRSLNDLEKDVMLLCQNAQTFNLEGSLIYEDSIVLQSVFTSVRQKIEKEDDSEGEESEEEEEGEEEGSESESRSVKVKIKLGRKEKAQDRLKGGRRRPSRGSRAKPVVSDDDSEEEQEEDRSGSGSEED
Experimental: SW1573 cells were seeded at 2x10^5Cells/well in a 6-well plate. 2 mL of EMEM medium supplemented with 10% FBS was added to each well and was incubated overnight to allow cell attachment. […] The cells were returned to the incubator and incubated for another 24 hours.
as §2, with “Primary antibodies (SMARCA2: CST#11966S, SMARCA4: CST#49360S, GAPDH: CST#5174S) were added and incubated overnight at 4°C.” left out
as §3

SMARCA2 [2] = target: T1, SMARCA2; experiment: SMARCA2 degradation in HeLa cells (Western blot); set-up: endogenous in cells; settings: 4 hours
Experimental: as §1
HeLa cells were seeded at 1.2 x 10^5 cells/well in a 6-well plate. 2 mL of EMEM medium supplemented with 10% FBS was added to each well and the culture dish was incubated overnight to allow the cells to adhere. The next day, 1 µL of 160 µM and 1 µL of 2 µM compound were added to the corresponding wells, resulting in final compound concentrations of 80 nM and 1 nM, respectively, and a final DMSO concentration of 0.05%. The cells were returned to the incubator and incubated for another 4 hours.
as §2, with “After 4 hours, cells” for “After 24 hours, cells”, “harvested, the culture medium was” for “harvested, the medium was”
as §3

T1 sequence (P51531 whole entry): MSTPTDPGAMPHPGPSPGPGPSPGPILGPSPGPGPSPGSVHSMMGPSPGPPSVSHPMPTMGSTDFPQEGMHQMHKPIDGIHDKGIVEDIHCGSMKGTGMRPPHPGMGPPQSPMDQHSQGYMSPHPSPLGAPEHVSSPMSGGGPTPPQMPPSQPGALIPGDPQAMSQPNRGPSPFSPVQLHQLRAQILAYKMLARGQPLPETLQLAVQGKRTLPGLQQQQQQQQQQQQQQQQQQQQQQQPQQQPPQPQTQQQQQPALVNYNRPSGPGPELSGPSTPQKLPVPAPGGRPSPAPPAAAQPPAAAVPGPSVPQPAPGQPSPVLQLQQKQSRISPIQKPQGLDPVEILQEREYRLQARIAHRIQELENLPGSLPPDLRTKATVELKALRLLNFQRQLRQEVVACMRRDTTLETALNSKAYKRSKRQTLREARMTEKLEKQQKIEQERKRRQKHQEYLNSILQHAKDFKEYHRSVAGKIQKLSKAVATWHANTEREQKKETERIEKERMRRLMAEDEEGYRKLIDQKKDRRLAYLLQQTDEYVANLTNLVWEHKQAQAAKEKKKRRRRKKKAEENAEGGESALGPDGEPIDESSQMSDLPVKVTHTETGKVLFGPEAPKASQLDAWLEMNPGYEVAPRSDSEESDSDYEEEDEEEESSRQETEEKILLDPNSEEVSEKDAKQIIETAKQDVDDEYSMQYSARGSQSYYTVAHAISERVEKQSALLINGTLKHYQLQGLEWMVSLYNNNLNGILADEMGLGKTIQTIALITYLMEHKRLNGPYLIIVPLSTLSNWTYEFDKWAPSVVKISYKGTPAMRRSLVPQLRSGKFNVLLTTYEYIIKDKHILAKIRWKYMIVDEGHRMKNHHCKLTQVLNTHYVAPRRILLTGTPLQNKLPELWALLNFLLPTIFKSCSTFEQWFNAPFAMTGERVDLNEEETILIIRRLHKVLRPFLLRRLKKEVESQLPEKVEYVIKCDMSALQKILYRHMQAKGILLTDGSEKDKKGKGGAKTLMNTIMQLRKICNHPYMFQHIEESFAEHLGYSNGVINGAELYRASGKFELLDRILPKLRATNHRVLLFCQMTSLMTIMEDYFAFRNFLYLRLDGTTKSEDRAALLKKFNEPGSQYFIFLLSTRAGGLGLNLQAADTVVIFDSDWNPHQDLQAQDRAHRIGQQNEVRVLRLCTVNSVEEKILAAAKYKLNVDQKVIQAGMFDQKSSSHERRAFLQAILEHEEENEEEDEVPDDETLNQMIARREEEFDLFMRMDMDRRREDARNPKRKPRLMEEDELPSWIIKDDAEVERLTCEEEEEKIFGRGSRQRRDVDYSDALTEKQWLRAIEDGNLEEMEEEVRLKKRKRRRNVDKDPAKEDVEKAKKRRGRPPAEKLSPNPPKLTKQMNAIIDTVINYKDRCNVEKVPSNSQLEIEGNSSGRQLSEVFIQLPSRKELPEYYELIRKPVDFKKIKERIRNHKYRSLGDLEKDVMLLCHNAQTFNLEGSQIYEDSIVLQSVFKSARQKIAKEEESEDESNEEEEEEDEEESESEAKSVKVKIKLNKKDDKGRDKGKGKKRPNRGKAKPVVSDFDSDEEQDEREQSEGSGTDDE

| SMILES | Degradation rate of SMARCA2 in SW1573 cells (%) (SMARCA2 [1]; 1 nM) | Degradation rate of SMARCA2 in SW1573 cells (%) (SMARCA2 [1]; 80 nM) | Degradation rate of SMARCA4 in SW1573 cells (%) (SMARCA4; 1 nM) | Degradation rate of SMARCA4 in SW1573 cells (%) (SMARCA4; 80 nM) | Dmax at 0.001 µM (SMARCA4; 1 nM) [%] | Dmax at 0.08 µM (SMARCA4; 80 nM) [%] | Degradation rate of SMARCA2 in HeLa cells (%) (SMARCA2 [2]; 1 nM) | Degradation rate of SMARCA2 in HeLa cells (%) (SMARCA2 [2]; 80 nM) |
| --- | --- | --- | --- | --- | --- | --- | --- | --- |
| Nc1nnc(-c2ccccc2O)cc1C#CC1CCC2(CC1)CC(N1CCN3c4cc(F)c(C(=O)N[C@H]5CCC(=O)NC5=O)cc4OC[C@H]3C1)C2 (stereo partly drawn) [SM-P-6, (R)-3-(7-((3-amino-6-(2-hydroxyphenyl)pyridazin-4-yl)ethynyl)spiro[3.5]nonan-2-yl)-n-((S)-2,6-dioxopiperidin-3-yl)-9-fluoro-1,2,3,4,4a,5-hexahydrobenzo[b]pyrazi no[1,2-d][1,4]oxazine-8-carboxamide] | 20 | 34 | -30 | -41 | – | – | – | – |
| Nc1nnc(-c2ccccc2O)cc1C#CC1CCC2(CC1)CC(N1CCN3c4cc(NC5CCC(=O)NC5=O)ccc4OCC[C@H]3C1)C2 (stereo partly shown) [SM-P-17] | 12 | 72 | – | – | -18 | 12 | – | – |
| CN(C(=O)c1ccc2c(c1)OC[C@H]1CN(C3CC4(CCC(C#Cc5cc(-c6ccccc6O)nnc5N)CC4)C3)CCN21)[C@H]1CCC(=O)NC1=O (stereo partly shown) [SM-P-18] | 16 | 25 | – | – | -32 | -34 | – | – |
| Nc1nnc(-c2ccccc2O)cc1C#CC1CCC2(CC1)CC(N1CCN3c4ccc(C(=O)N[C@H]5CCC(=O)NC5=O)c(F)c4OC[C@H]3C1)C2 (stereo partly shown) [SM-P-22] | -9 | 28 | – | – | 14 | 4 | – | – |
| Nc1nnc(-c2ccccc2O)cc1C#CC1CCC2(CC1)CC(N1CCC3(CC1)COc1cc(NC4CCC(=O)NC4=O)ccc1C3)C2 (stereo not shown) [SM-P-23, 3-((1'-(7-((3-amino-6-(2-hydroxyphenyl)pyridazin-4-yl)ethynyl)spiro[3.5]nonan-2-yl)spiro[chromane-3,4'-piperidin]-7-yl)amino)piperidine-2,6-dione] | 38 | 95 | – | – | -14 | 93 | – | – |
| Cn1c(=O)n(C2CCC(=O)NC2=O)c2cc3c(cc21)C1(CCN(C[C@H]2CC[C@H](Cn4cc(-c5cc(-c6ccccc6O)nnc5N)cn4)CC2)CC1)CO3 (stereo partly shown) [SM-P-30, 3-(1'-(((1r,4r)-4-((4-(3-amino-6-(2-hydroxyphenyl)pyridazin-4-yl)-1H-pyrazol-1-yl)methyl)cyclohexyl)methyl)-1-methyl-2-oxo-1,2-dihydro-3H,6H-spiro[benzofuro[5,6-d]imidazole-7,4'-piperidin]-3-yl)piperidine-2,6-dione] | 99 | 97 | – | – | – | – | 99 | 90 |
| Cn1c(=O)n(C2CCC(=O)NC2=O)c2ccc3c(c21)OCC31CCN(C[C@H]2CC[C@H](n3cc(-c4cc(-c5ccccc5O)nnc4N)cn3)CC2)CC1 (stereo partly shown) [SM-P-35] | 100 | 100 | – | – | – | – | 100 | 99 |
| Cn1c(=O)n(C2CCC(=O)NC2=O)c2cc3c(cc21)C1(CCN(C[C@H]2CC[C@H](n4cc(-c5cc(-c6ccccc6O)nnc5N)cn4)CC2)CC1)CO3 (stereo partly shown) [SM-P-36] | 100 | 98 | – | – | – | – | 99 | 97 |
| Cn1c(=O)n(C2CCC(=O)NC2=O)c2cc3c(cc21)C1(CCN(C2CN(c4cc(-c5ccccc5O)nnc4N)C2)CC1)CO3 (stereo not shown) [SM-P-38, 3-(1'-(1-(3-amino-6-(2-hydroxyphenyl)pyridazin-4-yl)azetidin-3-yl)-1-methyl-2-oxo-1,2-dihydro-3H,6H-spiro[benzofuro[5,6-d]imidazole-7,4'-piperidin]-3-yl)piperidine-2,6-dione] | 24 | 29 | – | – | – | – | -6 | 10 |
| Cc1ncsc1-c1ccc([C@H](C)NC(=O)[C@@H]2C[C@@H](O)CN2C(=O)[C@@H](NC(=O)[C@H]2CC[C@H](CN3CC4(CCC(n5cc(-c6cc(-c7ccccc7O)nnc6N)cn5)CC4)C3)CC2)C(C)(C)C)cc1 [SMD-3040, (2S,4R)-1-((S)-2-((1R,4S)-4-((7-(4-(3-amino-6-(2-hydroxyphenyl)pyridazin-4-yl)-1H-pyrazol-1-yl)-2-azaspiro[3.5]nonan-2-yl)methyl)cyclohexane-1-carboxamido)-3,3-dimethylbutanoyl)-4-hydroxy-N-((S)-1-(4-(4-methylthiazol-5-yl)phenyl)ethyl)pyrrolidine-2-carboxamide, reference compound] | 89 | 99 | 21 | 86 | – | – | – | – |

Reference: patent publication EP4722219A1 (Gan & Lee Pharmaceuticals Co., Ltd., priority 2023, dated 2024)
